# Measurements reported in patent publication US20230416258A1, “BENZ[…], AND PREPARATION METHOD THEREFOR AND USE THEREOF” (CHINA PHARMACEUTICAL UNIVERSITY, priority 2020, published 2023).
# Like-named read-outs stand apart in the source and are kept apart here.
# Legend:
# [1] = molecular target: voltage-gated potassium channel hERG (Homo sapiens (Human), UniProt Q12809); assay: Predictor hERG fluorescence polarization assay; assay type: binding
# Protocol: In this experiment, IC50 was calculated by detecting the effect of compounds at 8 concentrations on the […]. The procedures were performed exactly as for Predictor™ hERG fluorescence polarization assay kit. Before measuring fluorescence polarization, the assay plate was covered to protect the reagents from light and evaporation, and after incubation at room temperature for 2-4 h, the sample plate was centrifuged to read the fluorescence polarization value, with the excitation light at 540 nm and the emission light at 573 nm.
# KM mice = assay: Test for drug-induced disappearance of righting reflex in mice; assay type: in vivo; conditions: 30 mg/kg, single rapid bolus via tail vein
# How it was run: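 Female KM mice (18–25 g), randomly grouped, given a single rapid bolus via tail vein. Latency (administration to loss of righting reflex) and duration (loss to recovery) recorded.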
# SD rats [2] = assay: Induction of anesthesia in rats by continuous infusion of drug for 20 min; assay type: in vivo; conditions: initial dose 20 mg/kg bolus, maintenance dose 0.2 (mg/kg)/min for 20 min, after infusion completed
# Protocol: SD rats (male, 200-280 g) were randomly grouped and subjected to administration of an initial dose by rapid bolus via the tail vein, followed by a continuous infusion with a maintenance dose for 20 min.
# After the infusion was completed, the duration of the righting reflex and the time from wake-up to recovery in rats were recorded.
# [3] = In vitro plasma half-life of drug; assay type: in vitro ADME, SD rats; conditions: SD rat plasma, 37° C.
# Protocol: Preparation of plasma: after the SD rats were fasted and kept with water for 12 h, blood was collected through orbital venous plexus. The freshly collected blood was added into a centrifuge tube containing heparin sodium and centrifuged at 5000 rpm for 10 min at 4° C. The supernatant was slowly pipetted and subpackaged. Finally, the collected SD rat plasma was sealed, marked, and stored at −20° C. for later use.
# Preparation of target compound sample: the target compound was precisely weighed by an analytical balance and prepared into a stock solution at a concentration of 2 mg/mL (solvent: Vacetone:VTween 80:Vnormal saline=1:1:3) for later use.
# Determination of in vitro half-life of target compound sample: 20 μL of test compound stock solution and 80 μL of rat plasma were mixed uniformly. Nine parallel ep tubes were taken, marked as corresponding test tubes of 0 min, 1 min, 2 min, 3 min, 5 min, 10 min, 15 min, 20 min, and 30 min, respectively, and placed in a water bath at 37° C. for incubation for 0 min, 1 min, 2 min, 3 min, 5 min, 10 min, 15 min, 20 min, and 30 min, respectively. 50 μL of mixed solution were taken from the corresponding ep tube at each time point, and […] of acetonitrile was added for precipitating protein. The mixture was vortexed for 10 min using a mixer and centrifuged at 12000 rpm for 15 min. Then, the supernatant was centrifuged at 12000 rpm for 10 min. The optimal detection method for the target compound in the MRM mode was determined using Intellistat software in UPLC-MS/MS, the peak area of the corresponding mass spectrum was integrated, and the plasma half-life of the compound was calculated.
# hCMEC/D3 cells = assay: Rate of drug passing through in vitro blood-brain barrier (Transwell); assay type: in vitro ADME; conditions: hCMEC/D3 monolayer, compound 0.1 mg/mL
# How it was run: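 Confluent hCMEC/D3 monolayers grown 10 days on Transwell inserts (5.0 μm pores). Compound at 0.1 mg/mL added to the lower chamber; upper-chamber concentration measured after 5 min, with permeability expressed as upper/lower concentration ×100%.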
# [4] = test system: GABA-activated Cl− current (GABAA receptor) in HEK 293T cells; assay: Effect of drugs on GABA-activated current in cells by cell patch clamp; assay type: cell-based; conditions: for Enhancement percentage Emax for 2 μM GABA current (within 3-30 μM): corresponding concentration 20 μM
# How it was run: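 Whole-cell patch clamp of HEK 293T cells held at −60 mV; compound applied together with 2 μM GABA in extracellular buffer (140 mM NaCl, HEPES, pH 7.4). Enhancement of GABA-evoked Cl− current recorded in the same cell, reported as maximal enhancement (Emax) and corresponding concentration.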
# SD rats [5] = assay: Test for drug-induced disappearance of righting reflex in rats; assay type: in vivo; conditions: single rapid bolus via tail vein
# How it was run: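 Male SD rats (200-280 g) were randomly grouped and given a single rapid bolus dose via the tail vein. Latency to loss of righting reflex and its duration were recorded.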
# Chain of voltage-gated potassium channel hERG (Q12809 whole entry, looked up): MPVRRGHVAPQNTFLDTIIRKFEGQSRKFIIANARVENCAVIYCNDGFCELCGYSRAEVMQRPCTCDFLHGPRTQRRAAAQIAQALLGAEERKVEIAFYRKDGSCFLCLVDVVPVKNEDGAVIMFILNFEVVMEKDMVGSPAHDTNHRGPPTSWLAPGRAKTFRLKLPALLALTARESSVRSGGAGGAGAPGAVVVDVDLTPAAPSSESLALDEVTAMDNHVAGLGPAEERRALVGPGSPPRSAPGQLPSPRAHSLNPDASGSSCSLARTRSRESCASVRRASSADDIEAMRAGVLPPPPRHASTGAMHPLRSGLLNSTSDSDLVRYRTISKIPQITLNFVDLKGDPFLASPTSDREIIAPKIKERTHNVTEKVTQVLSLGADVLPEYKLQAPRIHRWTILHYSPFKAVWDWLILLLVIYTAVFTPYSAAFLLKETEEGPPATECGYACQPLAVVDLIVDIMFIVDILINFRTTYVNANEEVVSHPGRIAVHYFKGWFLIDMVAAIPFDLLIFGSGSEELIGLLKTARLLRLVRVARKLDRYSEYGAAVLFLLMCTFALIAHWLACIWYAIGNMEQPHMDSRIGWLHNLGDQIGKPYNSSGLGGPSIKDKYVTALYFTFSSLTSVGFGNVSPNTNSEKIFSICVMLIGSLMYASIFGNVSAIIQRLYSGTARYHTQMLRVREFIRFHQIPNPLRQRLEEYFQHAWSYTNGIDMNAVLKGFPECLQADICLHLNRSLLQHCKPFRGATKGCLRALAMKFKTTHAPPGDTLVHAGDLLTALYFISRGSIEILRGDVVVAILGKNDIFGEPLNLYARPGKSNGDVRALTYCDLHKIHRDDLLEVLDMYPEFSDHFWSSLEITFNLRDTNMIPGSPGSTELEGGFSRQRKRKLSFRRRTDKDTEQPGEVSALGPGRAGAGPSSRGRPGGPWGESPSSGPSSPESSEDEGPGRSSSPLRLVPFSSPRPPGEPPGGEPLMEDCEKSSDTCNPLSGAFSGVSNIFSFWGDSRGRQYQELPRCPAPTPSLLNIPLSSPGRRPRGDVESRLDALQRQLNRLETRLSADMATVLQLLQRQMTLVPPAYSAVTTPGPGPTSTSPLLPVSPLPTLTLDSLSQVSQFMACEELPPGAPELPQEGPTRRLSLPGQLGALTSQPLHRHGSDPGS
Structure (SMILES),IC50 [1] [µM],Duration (KM mice) [min],Latency (KM mice) [min],Duration of anesthesia (SD rats [2]) [min],Time from wake-up to recovery (SD rats [2]) [min],half-life at 0.4 mg/mL ([3]; plasma (heparin sodium)) [s],"In vitro blood-brain barrier, compound permeability at 5 min (hCMEC/D3 cells) [%]","EC50 ([4]; read-out: Positive enhancement EC50 (μM) for 2 μM GABA-induced current, −60 mV) [µM]",Enhancement percentage Emax for 2 μM GABA current (within 3-30 μM) ([4]; −60 mV),Latency (SD rats [5]) [min],"IC50 ([1]; hERG channel, fluorescence polarization, 8 concentrations, read-out: IC50) [µM]",In vitro plasma half-life [3] [s],"EC50 ([4]; 2 μM GABA, −60 mV, read-out: Positive enhancement EC50 (μM) for 2 μM GABA-induced current) [µM]",Duration (SD rats [5]) [min]
"COC(=O)CC[C@@H]1N=C(c2ccccn2)c2cc(Br)ccc2-n2c(SCc3ccncc3)nnc21 [Compound 126, methyl (S)-3-(8-bromo-6-(pyridin-2-yl)-1-(((pyridin-4-yl)methyl)thio)-4H-benzo[f][1,2,4]triazolo[4,3-a][1,4]diazepin-4-yl)propionate]",72.5,5.05,0.16,9.52,20.5,24.6,85.6,0.45,306% (20 μM),0.26,,,,
"COC(=O)CC[C@H]1N=C(c2ccccc2Cl)c2cc(Cl)ccc2-n2c(SCCN3CCC(O)CC3)nnc21 [Compound 135, methyl (S)-3-(8-chloro-6-(2-chlorophenyl)-1-(2-((4-hydroxypiperidin-1-yl)ethyl)thio)-4H-benzo[f][1,2,4]triazolo[4,3-a][1,4]diazepin-4-yl)propionate]",,10.64,0.22,7.24,13.6,,80.2,,263% (20 μM),0.14,31.9,19.8,0.75,16.64
